Data on six molecules can be found in PMC8506611, “Discovery and Characterization of Novel Antagonists of the Proinflammatory Orphan Receptor GPR84” (ACS Pharmacology & Translational Science, 2021).

For test [1], the target named is T1, human GPR84-Gαi2 fusion protein (Homo sapiens, UniProt Q9NQS5). As to the kind of experiment: [^35S]GTPγS binding assay, membranes of Flp-In TREx 293 cells expressing human GPR84-Gαi2. Type of test: biochemical. The settings on record: for pA2: Gaddum/Schild analysis, shifts in potency of 2-HTP, mean ± SEM; for Gaddum/Schild slope: Schild plots versus 2-HTP. The method, then:
(§1) All data are presented as means ± SEM of at least three independent experiments. Data analysis and curve fitting was carried out using the GraphPad Prism software package version 8 (GraphPad, San Diego). […] In case of inhibition experiments with antagonists, an equivalent analysis was followed to fit an inverse sigmoidal curve. To perform the statistical analysis of curve parameters, data from multiple experiments were fitted independently and resulting curve fit values were analyzed with indicated tests. Antagonism experiments carried out with multiple defined concentrations of antagonist were fit to a global Gaddum/Schild EC50 shift equation to estimate pA2 values for the antagonist. For radioligand binding data, saturation binding curves were generated by fitting the specific binding, which was obtained by subtracting nonspecific from total binding, to a one site specific binding model that allows calculation of Kd values for the radioligand at wild-type and mutant receptors.

In test [2] the test system is mouse GPR84-Gαi2 fusion protein. As to the kind of experiment: [^35S]GTPγS binding assay, membranes of Flp-In TREx 293 cells expressing mouse GPR84-Gαi2. Type of test: biochemical. The method, then: (§2) All data are presented as means ± SEM of at least three independent experiments. Data analysis and curve fitting was carried out using the GraphPad Prism software package version 8 (GraphPad, San Diego). For functional assays the concentration–response data were plotted on a log axis, with the untreated vehicle control plotted at 1 log unit lower than the lowest ligand concentration and fitted to a three parameter sigmoidal curve with the Hill slope constrained to equal 1. In case of inhibition experiments with antagonists, an equivalent analysis was followed to fit an inverse sigmoidal curve. To perform the statistical analysis of curve parameters, data from multiple experiments were fitted independently and resulting curve fit values were analyzed with indicated tests. Antagonism experiments carried out with multiple defined concentrations of antagonist were fit to a global Gaddum/Schild EC50 shift equation to estimate pA2 values for the antagonist. For radioligand binding data, saturation binding curves were generated by fitting the specific binding, which was obtained by subtracting nonspecific from total binding, to a one site specific binding model that allows calculation of Kd values for the radioligand at wild-type and mutant receptors.

The next test has as its target T2, dog GPR84 (Canis lupus familiaris, UniProt A0A8I3P3M6).
T2 construct: expressed in transfected cells
As to the kind of experiment: cAMP regulation assay in CHO cells expressing dog GPR84. The settings on record: versus EC80 of 6-OAU. The format is cell-based.

The target of another test is T3, rat GPR84 (Rattus norvegicus, UniProt D4ACK0).
T3 construct: expressed in transfected cells
T3 sequence (D4ACK0 1-396): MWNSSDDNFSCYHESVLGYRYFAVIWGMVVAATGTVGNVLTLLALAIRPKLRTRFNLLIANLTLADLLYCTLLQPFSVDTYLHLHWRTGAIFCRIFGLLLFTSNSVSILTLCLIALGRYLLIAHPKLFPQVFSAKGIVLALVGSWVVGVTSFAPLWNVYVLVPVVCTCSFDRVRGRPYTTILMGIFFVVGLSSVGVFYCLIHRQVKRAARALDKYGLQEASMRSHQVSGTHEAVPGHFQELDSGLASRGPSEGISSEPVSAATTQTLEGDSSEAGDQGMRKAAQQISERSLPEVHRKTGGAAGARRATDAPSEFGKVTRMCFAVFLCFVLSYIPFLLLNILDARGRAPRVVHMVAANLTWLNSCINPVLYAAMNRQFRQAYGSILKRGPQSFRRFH
As to the kind of experiment: cAMP regulation assay in CHO cells expressing rat GPR84. Type of test: cell-based. The settings on record: versus EC80 of 6-OAU.

Another test has as its target T4, pig GPR84 (Sus scrofa, UniProt I6WJ99).
T4 construct: expressed in transfected cells
As to the kind of experiment: cAMP regulation assay in CHO cells expressing pig GPR84. The settings on record: versus EC80 of 6-OAU. Type of test: cell-based.

For a further test, the target named is T5, mouse GPR84 (Mus musculus, UniProt Q8CIM5).
T5 construct: expressed in transfected cells
T5 sequence (Q8CIM5 whole entry): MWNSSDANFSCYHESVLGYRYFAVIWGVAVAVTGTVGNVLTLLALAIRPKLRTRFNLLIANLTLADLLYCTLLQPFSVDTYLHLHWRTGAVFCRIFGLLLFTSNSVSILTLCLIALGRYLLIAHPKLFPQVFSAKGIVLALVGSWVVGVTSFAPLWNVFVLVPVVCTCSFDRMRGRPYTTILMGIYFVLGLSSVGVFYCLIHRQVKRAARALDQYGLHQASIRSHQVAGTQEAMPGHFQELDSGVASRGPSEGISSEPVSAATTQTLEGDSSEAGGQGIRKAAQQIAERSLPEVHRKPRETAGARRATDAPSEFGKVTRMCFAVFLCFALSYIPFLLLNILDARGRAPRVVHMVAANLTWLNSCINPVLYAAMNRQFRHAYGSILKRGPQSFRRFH
Nature of the test: cAMP regulation assay in CHO cells expressing mouse GPR84. Type of test: cell-based. The settings on record: versus EC80 of 6-OAU.

Another test deals with macaque GPR84 (Macaca mulatta, UniProt F6W0J1). Nature of the test: cAMP regulation assay in CHO cells expressing macaque GPR84. The settings on record: versus EC80 of 6-OAU. Type of test: cell-based.
Sequence of macaque GPR84 (F6W0J1 1-396): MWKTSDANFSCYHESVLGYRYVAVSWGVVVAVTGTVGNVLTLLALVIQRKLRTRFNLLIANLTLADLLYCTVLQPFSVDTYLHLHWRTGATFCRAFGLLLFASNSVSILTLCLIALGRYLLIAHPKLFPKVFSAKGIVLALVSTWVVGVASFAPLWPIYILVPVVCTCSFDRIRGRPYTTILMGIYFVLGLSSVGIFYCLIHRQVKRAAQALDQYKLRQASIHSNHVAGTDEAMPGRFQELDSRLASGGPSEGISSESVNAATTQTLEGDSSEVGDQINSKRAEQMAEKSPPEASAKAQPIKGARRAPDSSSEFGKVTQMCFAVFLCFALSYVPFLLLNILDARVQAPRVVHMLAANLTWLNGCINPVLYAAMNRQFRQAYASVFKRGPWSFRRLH
Test [3] has as its system Thr^102Ala, Ser^363Gly mouse GPR84. Nature of the test: [^35S]GTPγS binding assay, Thr102Ala-Ser363Gly mouse GPR84 mutant. Type of test: biochemical. The method, then: (§3) The Stratagene QuikChange method (Stratagene, Agilent Technologies, Santa Clara, CA) was used to introduce alterations into FLAG-human GPR84-Gαi2 or FLAG-mouse GPR84-Gαi2. Primers utilized for mutagenesis were provided by MWG Operon (Acton, UK). Template DNA was digested with DpnI to leave only the newly synthesized mutated plasmid, and sequencing was carried out to confirm the introduction of the alterations.
as §2

The next test addresses GPR84 in RAW264.7 cells (Mus musculus, UniProt Q8CIM5). As to the kind of experiment: [^35S]GTPγS binding assay, membranes of RAW264.7 cells. The settings on record: RAW264.7 membranes.
The target of test [4] is T1, human GPR84-Gαi2 fusion protein. As to the kind of experiment: cAMP assay in Flp-In TREx 293 cells expressing human GPR84-Gαi2. The format is cell-based. The method, then: cAMP experiments were performed using Flp-In T-REx293 cells induced to express the receptor of interest or CHO-K1 cells stably expressing the orthologue of interest. Experiments were carried out using a homogeneous time-resolved FRET-based detection kit (CisBio, Codolet, France) according to the manufacturer’s protocol. For the assay cells were plated at 5000 cells/well in low-volume 384-well plates. The ability of agonists to inhibit 1 μM forskolin-induced cAMP production was assessed following a preincubation for 15 min with antagonist compounds, then a further 30 min incubation with agonist compounds. Reactions were stopped according to the manufacturer’s instructions and the output was measured with a PHERAstar FS plate reader (BMG Labtech, Aylesbury, UK).

For test [5], the system named is Ala^102Thr, Gly^363Ser human GPR84. Nature of the test: [^35S]GTPγS binding assay, Ala102Thr-Gly363Ser human GPR84 mutant. Type of test: biochemical. The method, then:
as §3, §2

The target in test [6] is T6, ECL3/TM7 chimeric human/mouse GPR84 (Mus musculus, UniProt Q8CIM5, G345V/R346Q/S363G/V354L).
T6 construct: expressed in transfected cells; host or cells: Flp-In TREx 293 cells
T6 sequence (Q8CIM5 whole entry G345V/R346Q/V354L/S363G): as the sequence (Q8CIM5 whole entry) above, with G345V, R346Q, V354L, S363G counted along it
Nature of the test: Antagonism of 2-HTP at ECL3/TM7 human/mouse GPR84 chimera in Flp-In TREx 293 cells. The format is cell-based. From the text:
(§4) Chimeric human-mouse GPR84-HA constructs were generated using synthetic DNA sequences purchased from Eurofins Genomics (Luxembourg), that were then subcloned in-frame into the BamH1 and Xho1 sites of pcDNA5/FRT/TO.

The target in test [7] is T7, GPR84 in LPS-treated THP-1 cells (Homo sapiens, UniProt Q9NQS5).
T7 construct: GPR84 expressed endogenously in human-derived cell lines and tissue; endogenous in cells; host or cells: THP-1 cells, 100 ng/mL LPS for 24 h, membranes
T7 sequence (Q9NQS5 whole entry): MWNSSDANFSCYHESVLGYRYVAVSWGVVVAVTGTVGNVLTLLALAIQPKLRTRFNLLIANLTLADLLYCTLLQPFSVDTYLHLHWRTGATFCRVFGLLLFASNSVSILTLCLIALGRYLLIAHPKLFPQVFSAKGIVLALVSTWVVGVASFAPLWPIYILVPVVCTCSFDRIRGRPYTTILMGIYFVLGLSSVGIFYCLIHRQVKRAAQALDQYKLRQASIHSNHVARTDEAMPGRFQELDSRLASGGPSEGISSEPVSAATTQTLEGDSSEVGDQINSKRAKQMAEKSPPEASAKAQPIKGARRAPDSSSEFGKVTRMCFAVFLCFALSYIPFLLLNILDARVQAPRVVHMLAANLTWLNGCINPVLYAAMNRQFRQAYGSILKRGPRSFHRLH
Nature of the test: [^35S]GTPγS binding assay, membranes of LPS-treated THP-1 cells. Type of test: biochemical. The settings on record: LPS-treated THP-1 membranes.

A further test addresses T8, Humanized mGPR84 (Homo sapiens, UniProt Q9NQS5, A294V/A296R/A298P/D231Q/D276G/G248R/H223R/H226Q/I278G/I301T/K216G/K284Q/K289R/K302A/L245V/M286I/N225H/N279I/P291L/P300E/P308T/Q210R/Q299R/Q379H/Q48R/R218H/R229G/R237H/R244G/R282A/R390Q/S280R/S295H/S310A/S311P/V274A).
T8 construct: expressed in transfected cells; host or cells: Flp-In TREx 293 cells
As to the kind of experiment: Antagonism of 2-HTP at humanized mGPR84 chimera in Flp-In TREx 293 cells. The format is cell-based. The settings on record: all ECL and TMD residues human in mouse backbone.
Description: as §4

Test [8] has as its system Ala^102Thr, Gly^363Ser human GPR84. As to the kind of experiment: [^3H]140 binding assay, Ala102Thr-Gly363Ser human GPR84-Gαi2. The method, then: as §3
(§5) Binding was initiated by the addition of membranes (5 μg of protein per tube). All assays were performed at 25 °C for 1 h before termination by the addition of ice-cold PBS and vacuum filtration through GF/C glassfibre filter-bottom 96-well microplates. Plates were washed three times with ice-cold PBS then allowed to dry for 2–3 h at room temperature. MicroScint-20 was added to dried filter plates, and radioactivity was quantified by liquid scintillation spectrometry. Specific binding was defined as the difference between binding detected in the presence and absence of 10 μM compound 020.
All data are presented as means ± SEM of at least three independent experiments. Data analysis and curve fitting was carried out using the GraphPad Prism software package version 8 (GraphPad, San Diego). […] To perform the statistical analysis of curve parameters, data from multiple experiments were fitted independently and resulting curve fit values were analyzed with indicated tests. […]

The target in test [9] is T7, GPR84 in LPS-treated THP-1 cells. Nature of the test: [^3H]140 binding assay, membranes of LPS-treated THP-1 cells. The settings on record: LPS-treated THP-1 membranes. The method, then:
as §1

The test system of test [10] is mouse GPR84-Gαi2 fusion protein. Nature of the test: [^3H]140 binding assay, membranes expressing mouse GPR84-Gαi2. The method, then:
as §5
All data are presented as means ± SEM of at least three independent experiments. Data analysis and curve fitting was carried out using the GraphPad Prism software package version 8 (GraphPad, San Diego). For functional assays the concentration–response data were plotted on a log axis, with the untreated vehicle control plotted at 1 log unit lower than the lowest ligand concentration and fitted to a three parameter sigmoidal curve with the Hill slope constrained to equal 1. In case of inhibition experiments with antagonists, an equivalent analysis was followed to fit an inverse sigmoidal curve. To perform the statistical analysis of curve parameters, data from multiple experiments were fitted independently and resulting curve fit values were analyzed with indicated tests. […]

The test system of test [11] is parental Flp-In TREx 293 cells. As to the kind of experiment: [^3H]140 binding assay, membranes from parental cells. The settings on record: parental cell membranes. The method, then: as §5

“And” between values parts separate entries of the source, which are not always exact repeats. Equal values may be shown once.

T1 sequence (Q9NQS5 whole entry, the tested form may be a part): as the sequence (Q9NQS5 whole entry) above
T1 sequence (P04899 2-355, further chain): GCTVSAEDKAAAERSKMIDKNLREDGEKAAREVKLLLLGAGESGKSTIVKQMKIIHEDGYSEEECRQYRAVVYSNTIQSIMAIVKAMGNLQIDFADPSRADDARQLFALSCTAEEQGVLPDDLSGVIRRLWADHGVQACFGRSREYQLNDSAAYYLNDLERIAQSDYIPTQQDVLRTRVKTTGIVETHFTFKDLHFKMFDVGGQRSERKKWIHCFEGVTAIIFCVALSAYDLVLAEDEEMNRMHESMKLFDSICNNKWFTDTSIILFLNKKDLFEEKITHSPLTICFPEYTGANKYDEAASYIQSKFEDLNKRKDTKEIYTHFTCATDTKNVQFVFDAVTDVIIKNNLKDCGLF
T2 sequence (A0A8I3P3M6 1-393): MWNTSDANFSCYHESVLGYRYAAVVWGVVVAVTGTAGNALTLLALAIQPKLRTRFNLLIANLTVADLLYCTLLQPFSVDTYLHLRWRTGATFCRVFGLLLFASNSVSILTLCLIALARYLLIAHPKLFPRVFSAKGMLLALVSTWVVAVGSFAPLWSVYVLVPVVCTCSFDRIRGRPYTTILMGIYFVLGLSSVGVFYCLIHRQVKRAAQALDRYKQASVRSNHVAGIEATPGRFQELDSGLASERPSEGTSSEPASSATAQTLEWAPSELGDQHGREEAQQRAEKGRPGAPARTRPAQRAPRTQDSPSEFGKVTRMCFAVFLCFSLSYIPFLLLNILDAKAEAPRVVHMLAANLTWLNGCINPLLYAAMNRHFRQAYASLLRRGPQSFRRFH
T4 sequence (I6WJ99 1-396): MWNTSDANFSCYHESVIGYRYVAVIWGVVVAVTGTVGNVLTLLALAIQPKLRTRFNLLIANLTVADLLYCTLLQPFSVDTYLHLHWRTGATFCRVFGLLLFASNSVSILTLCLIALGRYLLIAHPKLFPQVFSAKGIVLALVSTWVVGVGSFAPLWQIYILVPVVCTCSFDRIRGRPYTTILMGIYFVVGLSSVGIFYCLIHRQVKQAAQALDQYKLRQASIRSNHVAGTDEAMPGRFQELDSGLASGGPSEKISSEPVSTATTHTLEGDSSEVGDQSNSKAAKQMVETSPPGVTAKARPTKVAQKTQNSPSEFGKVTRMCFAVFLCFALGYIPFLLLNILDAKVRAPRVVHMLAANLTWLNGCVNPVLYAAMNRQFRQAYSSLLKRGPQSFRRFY
T8 sequence (Q9NQS5 with tags, fused parts or gaps with the stated changes): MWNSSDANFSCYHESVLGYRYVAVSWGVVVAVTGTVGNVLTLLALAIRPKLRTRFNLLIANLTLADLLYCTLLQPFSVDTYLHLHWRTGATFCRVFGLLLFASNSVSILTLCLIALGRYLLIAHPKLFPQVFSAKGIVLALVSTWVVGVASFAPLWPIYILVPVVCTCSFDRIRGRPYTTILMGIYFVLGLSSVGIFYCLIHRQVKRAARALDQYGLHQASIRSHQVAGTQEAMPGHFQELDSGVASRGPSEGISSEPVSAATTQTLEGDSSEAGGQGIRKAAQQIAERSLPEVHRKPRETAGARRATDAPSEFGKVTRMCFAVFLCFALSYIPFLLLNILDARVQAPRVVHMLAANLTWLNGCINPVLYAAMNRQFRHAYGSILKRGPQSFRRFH
Sequence of GPR84 in RAW264.7 cells (Q8CIM5 whole entry, the tested form may be a part): as the sequence (Q8CIM5 whole entry) above

For the molecule `CC(=O)OCc1ccc(-c2nc(Cc3c[nH]c4ccccc34)nnc2-c2ccccc2)cc1` [Compound 020, 4-(3-((1H-indol-3-yl)methyl)-6-phenyl-1,2,4-triazin-5-yl)benzyl acetate], in [1], the pA2 is given as 9.19 ± 0.10 and the Gaddum/Schild slope was 1.27 ± 0.03. Further, the pA2 in test [2] (Gaddum/Schild analysis versus 2-HTP, wild-type mouse GPR84) is listed as under 6.0. In [2] (limited effects at mouse GPR84), the “fold higher concentrations than required to antagonize human GPR84” value is recorded as “at least 1000 fold”.
Take `CC(=O)OCc1ccc(-c2nnc(Cc3c[nH]c4ccccc34)nc2-c2ccccc2)cc1` [Compound 021, 4-(3-((1H-indol-3-yl)methyl)-5-phenyl-1,2,4-triazin-6-yl)benzyl acetate]: in [1], the pA2 came out at 9.31 ± 0.10 and the Gaddum/Schild slope is listed as 1.14 ± 0.03.
Take `c1ccc(-c2nnc(Cc3c[nH]c4ccccc34)nc2-c2ccccc2)cc1` [Compound 140, 3-((5,6-Diphenyl-1,2,4-triazin-3-yl)methyl)-1H-indole]: the IC50 at dog GPR84 was 8.1 nM; on rat GPR84, 8700 nM; against pig GPR84 it was 5.6 nM; against mouse GPR84 it was over 10000 nM; against macaque GPR84, 6.4 nM.
As to `Ic1ccc(-c2nnc(Cc3c[nH]c4ccccc34)nc2-c2ccc(I)cc2)cc1` [Compound 441, 3-((5,6-Bis(4-iodophenyl)-1,2,4-triazin-3-yl)methyl)-1H-indole], in [1], the pA2 was 8.07 ± 0.02.
For the molecule `COc1ccc(-c2nnc(Cc3c[nH]c4ccccc34)nc2-c2ccc(OC)cc2)cc1` [Compound 837, 3-((5,6-Bis(4-methoxyphenyl)-1,2,4-triazin-3-yl)methyl)-1H-indole], the “block of activation by 2-HTP” value is “able to fully block activation by 2-HTP” in [3] and “unable to block” in [5]. Also, the “fold higher affinity than at wild-type mouse GPR84” value in [3] (from pA2) was “at least 5000 fold”. Moreover, the “fold lower affinity than at wild-type human GPR84” value in [3] (from pA2) is recorded as about 13 fold; in [5] (from pA2), 380 fold. The pA2 in [3] (versus 2-HTP, mean ± SEM n = 3) was 7.78 ± 0.08; in test [1], 8.90 ± 0.08 and 8.9; in test [5] (versus 2-HTP, mean ± SEM n = 3), 6.33 ± 0.15. Also, the “block of activation promoted by 2-HTP” value in test [1] (EC80 of 2-HTP) is recorded as “fully block”. The “block of activation promoted by 6-OAU” value in test [1] (EC80 of 6-OAU) is recorded as “fully block”. Also, the Gaddum/Schild slope in test [1] was 1.11 ± 0.04. The IC50 in test [1] (against an EC80 of embelin) is under 100 nM; in [6], 363 nM. Besides, the “reversal of activation produced by DIM” value in test [1] (allosteric activator DIM) is given as “fully reversed”. The “block of 2-HTP-induced [^35S]GTPγS binding” value on GPR84 in RAW264.7 cells is “unable to produce such an effect”; in [7], “blocked in a concentration-dependent and high potency manner”. For the same molecule, in [2] (EC80 of 2-HTP), the “antagonism of mouse GPR84” value is “no significant capacity to antagonize”. Moreover, the “affinity (from pA2)” value in test [2] (wild-type mouse GPR84) is given as under 100 μM. Moreover, the “block of inhibition of forskolin-amplified cAMP levels by 2-HTP” value in test [4] (2-HTP) is given as “fully blocked”. The “block of inhibition of forskolin-amplified cAMP levels by 6-OAU” value in test [4] (6-OAU) is “fully blocked”. Moreover, on Humanized mGPR84, the “affinity at humanized chimera compared with wild-type human receptor” value is reported as “equal affinity”.
For the molecule `c1ccc(-c2nnc(Cc3c[nH]c4ccccc34)nc2-c2ccccc2)cc1` [[^3H]140, [^3H]3-((5,6-diphenyl-1,2,4-triazin-3-yl)methyl)-1H-indole], in [8], the direct binding result is reported as “not possible to measure binding”. The Bmax in test [9] is reported as 905 ± 93 fmol/mg membrane protein. Moreover, the specific binding entry in test [10] is “unable to detect specific binding”; in [11], “no specific binding”.
